Drawing on US20260356851A1, “TRICYCLIC COMPOUNDS AND USES THEREOF” (HUTCHMED LIMITED, priority 2023, published 2026), this text covers IC50 for eleven compounds.

SMILES strings stand for the structures.

What all share (type): cell-based
The target of test [1] is T1, pERK1/2 (Thr202/Tyr204), PANC-1 (KRAS G121D) (Homo sapiens, UniProt P01116, G12D).
T1 construct: pERK1/2 HTRF read-out
In words: Assay of intracellular pERK1/2 (Thr202/Tyr204) phosphorylation in PANC-1 cells (KRAS G12D). The conditions noted are these: pERK1/2, 2 days, read-out: PANC-1 (KRAS G12D) IC50. Here is the method: (§1) Example 2: Assay of intracellular pERK1/2 (Thr202/Tyr204)phosphorylation
(§2) 1. Reagents and materials: • pERK1/2 (Thr202/Tyr2O4) HIRE kit, Cisbio, Cat #64ERKPEH; • OptiPlate™-384-well plate, PerkinElmer, Cat #6007299; • 96-well plate, Coming, Cat #353072; • Instrument: EnVision2104, PerkinElmer; • Cell lines: NCI-1H358 (KRAS G12C), ATCC, CRL-5807; PANC-1 (KRAS G121D), ATCC, CRL-1469; NCI-1H441 (KRAS G12V), ATCC, HTB-174.
(§3) 2. Preparation of Reaction Solutions
(§4) • A test compound was dissolved in DMSO, diluted to 200.0 μM and further diluted 3-fold to prepare a series of test compounds at concentrations of 66.7, 22.2, 7.4, 2.5, 0.82, 0.27, 0.09 μM etc. Then 10 μL of the compound at different dilution concentrations was added to 190 μL of a DMEM medium to prepare a 10× test compound; • 1× cell lysis buffer: 4× cell lysis stock solution (provided by the kit) was diluted 4-fold with deionized water, and then 10% 100× blocking stock solution (provided by the kit) was added thereto. • pERK1/2 detection solution (prepared just before use): the pERK1/2 d2 antibody (provided by the kit) and pERK1/2 Cryptate antibody (provided by the kit) were diluted with the detection solution (provided by the kit) at a ratio of 1:1:38.
(§5) • Cells were inoculated into a 96-well plate (100 μL/well) at a density of 10000-12000/well. No cell was inoculated into a negative control well, and only the cell medium was added at 100 μL/well. The plate was placed in a cell incubator at 5% CO2 and 37° C. overnight. • 10 μL of the 10× test compound was added to the 100 μL cell culture 96-well plate; both the positive control well (that is, the control hole without chemical compound treatment) and the negative control well were charged with 10 μL of a 5% DMSO culture solution; and the plate was cultured in a cell incubator at 5% CO2 and 37° C. for 2 days. • The medium in the 96-well plate was removed; 50 μL of the 1× cell lysis buffer was added to each of the wells; the plate was placed in a microplate shaker; and lysis under shaking was carried out at 900 rpm at room temperature for 1 hour. • 16 μL of the lysis buffer in the 96-well plate was taken and transferred to a 384-well plate, followed by centrifugation at 1000 rpm for 30 s; then 4 μL of pERK1/2 detection solution was added to each well, followed by centrifugation at 1000 rpm for 30 s; and the 384-well plate was sealed with a sealing membrane and incubated at 25° C. on a low-speed shaker at 100 rpm in the dark for 2 hours. • The fluorescence value (RFU) of each well was detected on EnVision2104, with an emission wavelength 1 being 665 nm and an emission wavelength 2 being 615 nm.
(§6) Fluorescence ratio=fluorescence value665 nm/fluorescence value615 nm
(§7) Inhibition rate (%)=100−((fluorescence ratio of compound well−fluorescence ratio of negative control well)/(fluorescence ratio of positive control well−fluorescence ratio of negative control well))×100
(§8) wherein: • the fluorescence ratio of compound well refers to the fluorescence ratio of the well containing the test compounds; • the fluorescence ratio of negative control well refers to the fluorescence ratio of the cell-free control well; • the fluorescence ratio of positive control well refers to the fluorescence ratio of the cell well treated with 0.5% DMSO.
(§9) IC50 value: obtained by calculation using XL-Fit 5.0 software.

Test [2] has as its target T2, pERK1/2 (Thr202/Tyr204), NCI-1H441 (KRAS G12V) (Homo sapiens, UniProt P01116, G12V).
T2 construct: pERK1/2 HTRF read-out
In words: Assay of intracellular pERK1/2 (Thr202/Tyr204) phosphorylation in NCI-H441 cells (KRAS G12V). The conditions noted are these: pERK1/2, 2 days, read-out: NCI-H441 (KRAS G12V) IC50. Here is the method:
as §1, §2, §3, §4, §5, §6, §7, §8, §9

Test [3] deals with T3, pERK1/2 (Thr202/Tyr204), NCI-1H358 (KRAS G12C) (Homo sapiens, UniProt P01116, G12C).
T3 construct: pERK1/2 HTRF read-out
In words: Assay of intracellular pERK1/2 (Thr202/Tyr204) phosphorylation in NCI-H358 cells (KRAS G12C). The conditions noted are these: pERK1/2, 2 days, read-out: NCI-H358 (KRAS G12C) IC50. Here is the method:
as §1, §2, §3, §4, §5, §6, §7, §8, §9

T1 sequence (P01116 1-188 isoform P01116-2 G12D): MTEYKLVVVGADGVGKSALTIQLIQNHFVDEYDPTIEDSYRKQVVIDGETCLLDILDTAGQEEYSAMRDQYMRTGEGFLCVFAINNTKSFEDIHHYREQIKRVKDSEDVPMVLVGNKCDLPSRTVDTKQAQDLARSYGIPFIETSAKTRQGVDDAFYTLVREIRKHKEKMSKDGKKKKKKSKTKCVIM
T2 sequence (P01116 1-188 isoform P01116-2 G12V): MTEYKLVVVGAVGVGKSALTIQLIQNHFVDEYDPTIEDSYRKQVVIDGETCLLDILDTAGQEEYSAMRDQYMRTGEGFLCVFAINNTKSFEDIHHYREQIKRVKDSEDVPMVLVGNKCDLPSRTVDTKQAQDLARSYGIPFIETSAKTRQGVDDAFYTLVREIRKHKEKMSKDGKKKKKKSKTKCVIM
T3 sequence (P01116 1-188 isoform P01116-2 G12C): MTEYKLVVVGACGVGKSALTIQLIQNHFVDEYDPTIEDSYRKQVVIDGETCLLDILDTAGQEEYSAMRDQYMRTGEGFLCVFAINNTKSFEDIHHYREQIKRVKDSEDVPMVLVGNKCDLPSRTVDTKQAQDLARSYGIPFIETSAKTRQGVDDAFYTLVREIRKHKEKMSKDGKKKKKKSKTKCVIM

For the compound `CC(c1cccnc1N)N1CCOc2nc(-c3cc(O)cc4ccc(F)c(F)c34)c(F)c3nc(OC[C@@H]4CC(F)(F)CN4C)nc1c23` (single isomer, unassigned) [Compound 51, 4-(10-((R or S)-1-(2-aminopyridin-3-yl)ethyl)-2-(((S)-4,4-difluoro-1-methylpyrrolidin-2-yl)methoxy)-4-fluoro-9,10-dihydro-8H-7-oxa-1,3,6,10-tetraazacyclohepta[de]naphthalen-5-yl)-5,6-difluoronaphthalen-2-ol], the values for the concentration for half-maximal inhibition (IC50) in test [1], in test [2] and in test [3] were 100 nM, 5 nM and 2 nM, respectively.

As for `CC(c1cccnc1N)N1CCOc2nc(-c3cc(N)ccc3C(F)(F)F)c(F)c3nc(OC[C@@]45CCCN4C[C@H](F)C5)nc1c23` (single isomer, unassigned) [Compound 53, 3-((R or S)-1-(5-(5-amino-2-(trifluoromethyl)phenyl)-4-fluoro-2-(((2R,7aS)-2-fluorotetrahydro-1H-pyrrolizin-7a(5H)-yl)methoxy)-8,9-dihydro-10H-7-oxa-1,3,6,10-tetraazacyclohepta[de]naphthalen-10-yl)ethyl)pyridin-2-amine], the values for the IC50 in test [1], in test [2] and in test [3] were > 1000 nM, 191 nM and 88 nM, respectively.

With `CC(c1cccnc1N)N1CCOc2nc(-c3cc(N)ccc3C(F)(F)F)c(F)c3nc(OC[C@@]45CCCN4C[C@H](F)C5)nc1c23` (single isomer, unassigned) [Compound 54, 3-((R or S)-1-(5-(5-amino-2-(trifluoromethyl)phenyl)-4-fluoro-2-(((2R,7aS)-2-fluorotetrahydro-1H-pyrrolizin-7a(5H)-yl)methoxy)-8,9-dihydro-10H-7-oxa-1,3,6,10-tetraazacyclohepta[de]naphthalen-10-yl)ethyl)pyridin-2-amine], the concentration for half-maximal inhibition (IC50) was determined as 21 nM in test [1], 2 nM in test [2] and 0.7 nM in test [3].

For `CC(c1cccnc1N)N1CCOc2nc(-c3cc(O)cc(Cl)c3C3CC3)c(F)c3nc(OC[C@@H]4CC(F)(F)CN4C)nc1c23` (single isomer, unassigned) [Compound 55, 3-(10-((R or S)-1-(2-aminopyridin-3-yl)ethyl)-2-(((S)-4,4-difluoro-1-methylpyrrolidin-2-yl)methoxy)-4-fluoro-9,10-dihydro-8H-7-oxa-1,3,6,10-tetraazacyclohepta[de]naphthalen-5-yl)-5-chloro-4-cyclopropylphenol], the half-inhibitory concentration (IC50) in test [1] was > 1000 nM; in test [2], 511 nM; in test [3], 322 nM.

Regarding `CC(c1cccnc1N)N1CCOc2nc(-c3cc(O)cc(Cl)c3C3CC3)c(F)c3nc(OC[C@@H]4CC(F)(F)CN4C)nc1c23` (single isomer, unassigned) [Compound 56, 3-(10-((R or S)-1-(2-aminopyridin-3-yl)ethyl)-2-(((S)-4,4-difluoro-1-methylpyrrolidin-2-yl)methoxy)-4-fluoro-9,10-dihydro-8H-7-oxa-1,3,6,10-tetraazacyclohepta[de]naphthalen-5-yl)-5-chloro-4-cyclopropylphenol], the IC50 in test [1] was found to be 134 nM; in test [2] it was 5 nM; in test [3], 3 nM.

In the case of `CC(c1cccnc1N)N1CCOc2nc(-c3cc(O)cc(Cl)c3C(F)(F)F)c(F)c3nc(OC[C@@]45CCCN4C[C@H](F)C5)nc1c23` (single isomer, unassigned) [Compound 57, 3-(10-((R or S)-1-(2-aminopyridin-3-yl)ethyl)-4-fluoro-2-(((2R,7aS)-2-fluorotetrahydro-1H-pyrrolizin-7a(5H)-yl)methoxy)-9,10-dihydro-8H-7-oxa-1,3,6,10-tetraazacyclohepta[de]naphthalen-5-yl)-5-chloro-4-(trifluoromethyl)phenol], the IC50 amounted to 746 nM in test [1], 32 nM in test [2] and 15 nM in test [3].

Regarding `CC(c1cccnc1N)N1CCOc2nc(-c3cc(O)cc(Cl)c3C(F)(F)F)c(F)c3nc(OC[C@@]45CCCN4C[C@H](F)C5)nc1c23` (single isomer, unassigned) [Compound 58, 3-(10-((R or S)-1-(2-aminopyridin-3-yl)ethyl)-4-fluoro-2-(((2R,7aS)-2-fluorotetrahydro-1H-pyrrolizin-7a(5H)-yl)methoxy)-9,10-dihydro-8H-7-oxa-1,3,6,10-tetraazacyclohepta[de]naphthalen-5-yl)-5-chloro-4-(trifluoromethyl)phenol], the IC50 in test [1] stood at 147 nM; in test [2], 5 nM; in test [3] it was 3 nM.

On to `Cc1cc(N)cc(-c2nc3c4c(nc(OC[C@@]56CCCN5C[C@H](F)C6)nc4c2F)N(C(C)c2cccnc2N)CCO3)c1C(F)(F)F` (single isomer, unassigned) [Compound 61, 3-((R or S)-1-(5-(5-amino-3-methyl-2-(trifluoromethyl)phenyl)-4-fluoro-2-(((2R,7aS)-2-fluorotetrahydro-1H-pyrrolizin-7a(5H)-yl)methoxy)-8,9-dihydro-10H-7-oxa-1,3,6,10-tetraazacyclohepta[de]naphthalen-10-yl)ethyl)pyridin-2-amine], for which the IC50 was determined as 0.6 nM in test [1], 0.2 nM in test [2] and 0.2 nM in test [3].

For `Cc1cc(N)cc(-c2nc3c4c(nc(OC[C@@]56CCCN5C[C@H](F)C6)nc4c2F)N(C(C)c2cccnc2N)CCO3)c1C(F)(F)F` (single isomer, unassigned) [Compound 62, 3-((R or S)-1-(5-(5-amino-3-methyl-2-(trifluoromethyl)phenyl)-4-fluoro-2-(((2R,7aS)-2-fluorotetrahydro-1H-pyrrolizin-7a(5H)-yl)methoxy)-8,9-dihydro-10H-7-oxa-1,3,6,10-tetraazacyclohepta[de]naphthalen-10-yl)ethyl)pyridin-2-amine], the IC50 in test [1] was 55 nM; in test [2] it was 9 nM; in test [3], 8 nM.

As to `CC(c1cccnc1N)N1CCOc2nc(-c3cc(N)cc(Cl)c3C(F)(F)F)c(F)c3nc(OC[C@@]45CCCN4C[C@H](F)C5)nc1c23` (single isomer, unassigned) [Compound 71, 3-((R or S)-1-(5-(5-amino-3-chloro-2-(trifluoromethyl)phenyl)-4-fluoro-2-(((2R,7aS)-2-fluorotetrahydro-1H-pyrrolizin-7a(5H)-yl)methoxy)-8,9-dihydro-10H-7-oxa-1,3,6,10-tetraazacyclohepta[de]naphthalen-10-yl)ethyl)pyridin-2-amine], the IC50 in test [1] amounted to 0.6 nM; in test [2], 0.4 nM; in test [3], 0.1 nM.

`CC(c1cccnc1N)N1CCOc2nc(-c3cc(N)cc(Cl)c3C(F)(F)F)c(F)c3nc(OC[C@@]45CCCN4C[C@H](F)C5)nc1c23` (single isomer, unassigned) [Compound 72, 3-((R or S)-1-(5-(5-amino-3-chloro-2-(trifluoromethyl)phenyl)-4-fluoro-2-(((2R,7aS)-2-fluorotetrahydro-1H-pyrrolizin-7a(5H)-yl)methoxy)-8,9-dihydro-10H-7-oxa-1,3,6,10-tetraazacyclohepta[de]naphthalen-10-yl)ethyl)pyridin-2-amine]: the 50% inhibitory concentration (IC50) in test [1] is 38 nM; in test [2], 13 nM; in test [3], 11 nM.
